From patent publication US20220235006A1, “PYRIDINE DERIVATIVES AS TMEM16A MODULATORS FOR USE IN THE TREATMENT OF RESPIRATORY CONDITIONS” (TMEM16A LIMITED, priority 2019, published 2022)
pEC50: −log10 of the molar value. ≈ marks a conversion by molar mass, not a printed value.

Key:
[1] = target: T1, human TMEM16A (TMEM16Aabc variant) (Homo sapiens, UniProt Q5XXA6, DEL476-501); assay: Automated whole-cell patch clamp (Qpatch) TMEM16A potentiator assay in recombinant FRT cells; format: cell-based; settings: for activation at 3.33 µM: percentage increase of baseline TMEM16A current, minimum n = 2, read-out: % Potentiation @ 3.33 uM Avg; for pEC50: minimum n = 2
T1 sequence (Q5XXA6 with tags, fused parts or gaps isoform Q5XXA6-5 DEL539-564): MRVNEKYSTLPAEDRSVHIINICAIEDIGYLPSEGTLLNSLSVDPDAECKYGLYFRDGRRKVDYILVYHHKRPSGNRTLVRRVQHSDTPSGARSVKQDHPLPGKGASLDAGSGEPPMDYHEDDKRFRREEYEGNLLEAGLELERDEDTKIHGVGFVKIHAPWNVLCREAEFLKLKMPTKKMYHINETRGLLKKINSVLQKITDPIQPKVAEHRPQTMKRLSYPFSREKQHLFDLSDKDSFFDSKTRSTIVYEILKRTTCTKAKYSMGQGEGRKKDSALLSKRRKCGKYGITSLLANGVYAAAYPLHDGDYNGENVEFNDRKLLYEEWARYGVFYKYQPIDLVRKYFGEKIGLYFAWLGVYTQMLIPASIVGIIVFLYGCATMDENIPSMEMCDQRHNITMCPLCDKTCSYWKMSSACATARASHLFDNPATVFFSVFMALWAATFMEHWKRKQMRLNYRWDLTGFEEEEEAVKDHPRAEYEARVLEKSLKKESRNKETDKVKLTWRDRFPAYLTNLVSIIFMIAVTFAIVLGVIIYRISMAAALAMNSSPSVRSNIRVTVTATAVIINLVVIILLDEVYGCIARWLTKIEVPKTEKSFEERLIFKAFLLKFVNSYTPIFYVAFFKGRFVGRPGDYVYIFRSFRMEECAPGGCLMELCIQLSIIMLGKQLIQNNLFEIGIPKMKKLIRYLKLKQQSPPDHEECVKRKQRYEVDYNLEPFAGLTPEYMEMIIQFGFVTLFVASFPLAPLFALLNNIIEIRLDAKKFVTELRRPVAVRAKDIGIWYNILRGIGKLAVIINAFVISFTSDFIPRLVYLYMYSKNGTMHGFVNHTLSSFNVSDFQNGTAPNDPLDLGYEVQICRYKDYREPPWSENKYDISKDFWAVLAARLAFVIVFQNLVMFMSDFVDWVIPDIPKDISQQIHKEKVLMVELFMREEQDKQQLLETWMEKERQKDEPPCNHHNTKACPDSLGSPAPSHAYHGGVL
Method: Automated Whole-Cell Patch Clamp Assay to Detect TMEM16A Activity in Recombinant Cells
Fisher rat thyroid (FRT) cells stably expressing human TMEM16A (TMEM16Aabc variant; Dr Luis Galietta, Insituto Giannina, Italy) were cultured in T-75 flasks in Hams F-12 media with Coon's modification (Sigma) supplemented with 10% (v/v) foetal bovine serum, penicillin-streptomycin (10,000 U/mL/10000 μg/mL), G-418 (750 μg/mL), L-glutamine (2 mM) and sodium bicarbonate solution (7.5% v/v). At ˜90% confluence cells were harvested for experiments by detachment with a 2:1 (v/v) mixture of Detachin (BMS Biotechnology) and 0.25% (w/v) trypsin-EDTA.
FRT-TMEM16A cells were whole-cell patch clamped using an automated planar patch clamp system (Qpatch, Sophion). Briefly, once high resistance (GOhm) seals were established between the cells and the planar recording array the patch was ruptured using suction pulses to establish the whole-cell recording configuration of the patch clamp technique. The assay employed the following solutions (all reagents Sigma): Intracellular solution (mM): N-methyl-D-glucamine 130, CaCl2 18.2, MgCl2 1, HEPES 10, EGTA 10, BAPTA 20, Mg-ATP 2, pH 7.25, 325 mOsm with sucrose.
Extracellular solution (mM): N-methyl-D-glucamine 130, CaCl2 2, MgCl2 1, HEPES 10, pH 7.3, 320 mOsm with sucrose.
The intracellular solution buffers intracellular calcium at levels required to give ˜20% activation of the maximal TMEM16A mediated current (E020 for calcium ions). Cells were voltage clamped at a holding potential of −70mV and a combined voltage step (to +70 mV)/ramp (−90 my to +90 mV) was applied at 0.05 Hz. After a period of current stabilisation test compounds, solubilised in 100% (v/v) DMSO and subsequently diluted into extracellular solution, were applied to generate a cumulative concentration response curve. Each concentration of test compound was incubated for 5 minutes before addition of the next concentration. After the final concentration was tested a supramaximal concentration of either a known active positive modulator or the TMEM16A inhibitor, CaCCinhA01 (Del La Fuente et al, 2008) was added to define the upper and lower limits of the assay.
Compound activity was quantified by measuring the increase in current upon compound addition and expressing this as a percentage increase of baseline TMEM16A current level.
Peak TMEM16A current at +70 mV was plotted as a function of time over the assay period. Baseline current (IBL) was measured after a period of stabilisation. The increase in current for each compound addition was determined by taking the peak current during the incubation period and subtracting the current from the previous recording period and then expressing this as a percentage of the baseline current (% potentiation). For test compound concentration 1 in FIG. 1 this is:
For each additional concentration tested the increase in current was determined by subtracting the current from the previous incubation period and normalising the baseline value—for test concentration 2 in FIG. 1 this is:
The values for each test concentration were plotted as a cumulative function of concentration eg. for test concentration two this would be the sum of the peak changes measured during concentration one plus concentration two.

[2] = Log D (pH7.4 shake flask); format: physicochemical; settings: pH 7.4; 1-octanol/phosphate buffer shake flask; read-out: mLogD (pH 7.4)
Method: Phosphate buffer (1 M) was diluted to 20 mM with deionised water and adjusted to pH 7.4 with phosphoric acid or sodium hydroxide. 1-octanol and phosphate buffer (20 mM) were saturated overnight by tumbling. The two phases were separated using a separation funnel. 5 μL of 5 mM compound cassette was added to 495 μL of octanol-saturated buffer and 495 μL buffer saturated octanol in a 96-well plate (top concentration 50 μM). Plate was shaken for 1 h and centrifuged at 25° C. for 5 min. 200 μL of each phase was transferred to a separate plate. The octanol layer was sampled first to avoid cross contamination. 5 μL of the solutions were transferred to 495 μL of quench solution* (max concentration 0.5 μM). In addition, 40 μL of buffer solution was added to 360 μL of quench solvent (max concentration 5 μM). Samples were analysed by LC-MS/MS. Benchmarking against a calibration curve for each compound and with reference to the control compounds sulpride, diclofenac, chlorpromazine and tamoxifen. *Quench solution was a 1:3:1 mixture (v/v/v) of Acetonitrile containing 0.1% formic acid and imipramine/labetalol, 200 nM:Acetonitrile:Water.

[3] = Kinetic solubility determination (high throughput); format: physicochemical; settings: kinetic from dmso stock, sterile water, 5% DMSO, room temperature
Method: Test compounds (10 μL; 20 mM DMSO solution) were added to sterile water (190 μL) in triplicate and shaken at 300 rpm at room temperature. After 90 min. the test compounds were filtered by centrifuge (5 min. at 3000 rpm) to obtain the aqueous filtrate. Acetonitrile (20 μL) was dispensed into clean 96-well UV/VIS analysis plate and aqueous filtrate (80 μL) added and the plate analysed for test compound concentration using a Molecular Devices SPECTRAmax® plus microplate reader at the following wavelengths: (280, 300, 320, 340, 360, 800 nm). […] The diluted filtrate (80 μL) was then added to acetonitrile (20 μL) and the plate analysed. as previously.

Row | SMILES | activation at 3.33 µM [1] | pEC50 [1] | logD [2] | solubility kinetic at 90 min [3]
1 | CC1(NC(=O)c2cc(NC(=O)Cc3cc(O)c(C(C)(C)C)cc3F)ccn2)CC1 [Example 1, 4-[[2-(4-tert-Butyl-2-fluoro-5-hydroxy-phenyl)acetyl]amino]-N-(1-methylcyclopropyl)pyridine-2-carboxamide] | 248% | 7.42 | > 4.2 | –
2 | CC(C)(C#N)NC(=O)c1cc(NC(=O)Cc2cc(O)c(C(C)(C)C)cc2F)c(F)cn1 [Example 3, 4-[[2-(4-tert-Butyl-2-fluoro-5-hydroxy-phenyl)acetyl]amino]-N-(1-cyano-1-methyl-ethyl)-5-fluoro-pyridine-2-carboxamide] | 353% | 6.88 | 3.9 | –
3 | CC(C)(C#N)NC(=O)c1cc(NC(=O)Cc2cc(O)c(C(C)(C)C)cc2Cl)ccn1 [Example 10, 4-[[2-(4-tert-Butyl-2-chloro-5-hydroxy-phenyl)acetyl]amino]-N-(1-cyano-1-methyl-ethyl)pyridine-2-carboxamide] | 310% | 7.28 | > 4 | –
4 | CC(C)(O)c1cc(F)c(CC(=O)Nc2ccnc(C(=O)NC3(C(F)(F)F)CC3)c2)c(Cl)c1O [Example 18, 4-[[2-[2-Chloro-6-fluoro-3-hydroxy-4-(1-hydroxy-1-methyl-ethyl)phenyl]acetyl]amino]-N-[1-(trifluoromethyl)cyclopropyl]pyridine-2-carboxamide] | 315% | 6.57 | – | –
5 | CC(C)(O)c1cc(Cl)c(CC(=O)Nc2ccnc(C(=O)NC3(C(F)(F)F)CC3)c2)cc1O [Example 19, 4-[[2-[2-Chloro-5-hydroxy-4-(1-hydroxy-1-methyl-ethyl)phenyl]acetyl]amino]-N-[1-(trifluoromethyl)cyclopropyl]pyridine-2-carboxamide] | 244% | 7.34 | – | –
6 | CC(CO)c1cc(F)c(CC(=O)Nc2ccnc(C(=O)NC3(C(F)(F)F)CC3)c2)cc1O (stereo not shown) [Example 20, 4-[[2-[2-Fluoro-5-hydroxy-4-(2-hydroxy-1-methyl-ethyl)phenyl]acetyl]amino]-N-[1-(trifluoromethyl)cyclopropyl]pyridine-2-carboxamide] | 295% | 7.00 | – | –

Now from value to compound:

Row | activation at 3.33 µM [1] | pEC50 [1] | logD [2] | solubility kinetic at 90 min [3] | SMILES
7 | 118% | 7.59 | > 4 | 6 µg/mL (≈ 14.6 µM) | C#CC(C)(C)NC(=O)c1cc(NC(=O)Cc2cc(O)c(C(C)(C)C)cc2F)ccn1 [Example 1.1]
8 | 149% | 7.35 | > 4.5 | 3 µg/mL (≈ 6.86 µM) | C#CC1(NC(=O)c2cc(NC(=O)Cc3cc(O)c(C(C)(C)C)cc3F)ccn2)CCCC1 [Example 1.2]
9 | 200% | 7.43 | > 4.1 | – | CC(C)(C#N)NC(=O)c1cc(NC(=O)Cc2cc(O)c(C(C)(C)C)cc2F)ccn1 [Example 1.4]
10 | 148% | 7.19 | 3.7 | 11 µg/mL (≈ 26.8 µM) | CC(C)(C)c1cc(F)c(CC(=O)Nc2ccnc(C(=O)NC3(C#N)CC3)c2)cc1O [Example 1.5]
11 | 202% | 7.60 | > 4 | – | CC(C)(C)c1cc(F)c(CC(=O)Nc2ccnc(C(=O)NC3(C(F)(F)F)CC3)c2)cc1O [Example 1.7]
12 | 356% | 7.16 | 3.7 | – | CC(C)(C)NC(=O)c1cc(NC(=O)Cc2cc(O)c(C3(C#N)CC3)cc2F)ccn1 [Example 2.4, N-tert-Butyl-4-[[2-[4-(1-cyanocyclopropyl)-2-fluoro-5-hydroxy-phenyl]acetyl]amino]pyridine-2-carboxamide]
13 | 434% | 7.52 | 4.2 | – | O=C(Cc1cc(O)c(C2(C(F)(F)F)CCO2)cc1F)Nc1ccnc(C(=O)NC2(C(F)(F)F)CC2)c1 (stereo not shown) [Example 2.10, 4-[[2-[2-Fluoro-5-hydroxy-4-[2-(trifluoromethyl)oxetan-2-yl]phenyl]acetyl]amino]-N-[1-(trifluoromethyl)cyclopropyl]pyridine-2-carboxamide]
14 | 122% | 7.57 | – | 99 µg/mL (≈ 206 µM) | CC(C)(C#N)NC(=O)c1cc(NC(=O)Cc2cc(O)c(C3(C(F)(F)F)CCO3)cc2F)ccn1 (stereo not shown) [Example 2.14, N-(1-Cyano-1-methyl-ethyl)-4-[[2-[2-fluoro-5-hydroxy-4-[2-(trifluoromethyl)oxetan-2-yl]phenyl]acetyl]amino]pyridine-2-carboxamide]
15 | 295% | 6.94 | – | – | CC(C)(C#N)NC(=O)c1cc(NC(=O)Cc2cc(O)c(C(C)(C)CO)cc2F)ccn1 [Example 16.2, N-(1-Cyano-1-methyl-ethyl)-4-[[2-[2-fluoro-5-hydroxy-4-(2-hydroxy-1,1-dimethyl-ethyl)phenyl]acetyl]amino]pyridine-2-carboxamide]
16 | 140% | 6.39 | – | – | CC(CO)c1cc(F)c(CC(=O)Nc2ccnc(C(=O)NC3(C)CCOCC3)c2)cc1O (stereo not shown) [Example 16.3, 4-[[2-[2-Fluoro-5-hydroxy-4-(2-hydroxy-1-methyl-ethyl)phenyl]acetyl]amino]-N-(4-methyltetrahydropyran-4-yl)pyridine-2-carboxamide]
